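96-well plates; 48 h exposure; 5 concentrations. Endpoints by linear interpolation between flanking doses. Not reached: highest tested concentration assigned. Abbreviation: GI50, concentration required for 50% inhibition of growth. TGI: total growth inhibition.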
Legend:
Assay in all cases: DTP human tumour cell line panel, 48 h
HCC-2998 colon = system: HCC-2998 colon
T-47D breast = system: T-47D breast
OVCAR-8 ovarian = system: OVCAR-8 ovarian
SN12C renal = system: SN12C renal
HCT-15 colon = system: HCT-15 colon
COLO 205 colon = system: COLO 205 colon
EKVX NSCLC = system: EKVX NSCLC
IGROV1 ovarian = system: IGROV1 ovarian
UO-31 renal = system: UO-31 renal
K-562 leukemia = system: K-562 leukemia

SMILES | GI50 (HCC-2998 colon) | TGI (HCC-2998 colon) | GI50 (T-47D breast) | TGI (T-47D breast) | GI50 (OVCAR-8 ovarian) | TGI (OVCAR-8 ovarian) | GI50 (SN12C renal) | TGI (SN12C renal) | GI50 (HCT-15 colon) | TGI (HCT-15 colon) | GI50 (COLO 205 colon) | TGI (COLO 205 colon) | GI50 (EKVX NSCLC) | TGI (EKVX NSCLC) | GI50 (IGROV1 ovarian) | TGI (IGROV1 ovarian) | GI50 (UO-31 renal) | TGI (UO-31 renal) | GI50 (K-562 leukemia) | TGI (K-562 leukemia)
CCCCCCCCO/N=C\c1c2c(O)c3c(O)c(C)c4c(c3c1O)C(=O)C(C)(O/C=C\C(OC)C(C)C(OC(C)=O)C(C)C(O)C(C)C(O)C(C)/C=C\C=C(\C)C(=O)N2)O4 (stereo not given) | 2.05 µM | 7.03 µM | 2.06 µM | 7.45 µM | 1.75 µM | 6.97 µM | 2.39 µM | 9.22 µM | 1.79 µM | 6.81 µM | 1.35 µM | 3.59 µM | 1.43 µM | 6.59 µM | – | – | – | – | – | –
O=C(Nc1nc(-c2ccc(Cl)cc2)cs1)c1ccc(O)c(O)c1 | 12 µM | 26.5 µM | 2.87 µM | 18.5 µM | 4.14 µM | 16.7 µM | 3.67 µM | 15.7 µM | 3.14 µM | 18.3 µM | 11.4 µM | 26.5 µM | – | – | 2.38 µM | 8.04 µM | 2.29 µM | 10.6 µM | 3.46 µM | 20 µM
C/C=C/C/C=C/CCC(=O)C1OC1C(N)=O (stereo not given) | – | 31.1 µM | – | – | – | 26.7 µM | – | 39.8 µM | – | 25.9 µM | – | 33.5 µM | – | 36.4 µM | – | 31.8 µM | – | 29.5 µM | – | 36.8 µM
CC(=O)NC(Cc1c[nH]c2ccccc12)C(=O)O (stereo not given) | – | – | – | > 100 µM | – | > 100 µM | – | > 100 µM | – | > 100 µM | – | > 100 µM | – | > 100 µM | – | > 100 µM | – | > 100 µM | – | > 100 µM
CC1=C([Se]CC(OC(=O)[C@@H](CSSC(C)(C)C)NC(=O)C(C)(C)C)C(=O)NCCCCCC(=O)OCc2ccccc2)C(=O)c2ccccc2C1=O (stereo not given in full) | 2.2 µM | 4 µM | 2.19 µM | 6.39 µM | 2.01 µM | 3.78 µM | 2 µM | 3.89 µM | 3.2 µM | 12.9 µM | 1.8 µM | 3.47 µM | 2.24 µM | 5.41 µM | 1.9 µM | 3.66 µM | 1.47 µM | 3.16 µM | – | –
N#Cc1c(SCc2ccccc2)nc2[nH]c(=S)[nH]c(=S)c2c1-c1ccco1 | – | – | – | – | 67.9 µM | > 100 µM | 15.7 µM | 36.1 µM | 27.6 µM | > 100 µM | 41.2 µM | > 100 µM | 17 µM | > 100 µM | > 100 µM | > 100 µM | 61.2 µM | > 100 µM | 24.3 µM | > 100 µM
C/C(=N\[N+](C)(C)C)C(c1ccccc1)C1(c2ccccc2)C(c2ccccc2)=C1c1ccccc1 (stereo not given) | – | > 100 µM | – | – | – | > 100 µM | – | > 100 µM | – | > 100 µM | – | – | – | > 100 µM | – | > 100 µM | – | > 100 µM | – | > 100 µM
O=S(=O)(NCCNc1cc(-c2cn(-c3ccccc3)nc2-c2cccc(O)c2)ccn1)c1ccc(F)cc1 | 1.98 µM | 4.19 µM | 2.01 µM | 6.86 µM | 3.07 µM | 14.1 µM | 3.69 µM | 35.1 µM | 1.8 µM | 5.75 µM | 1.91 µM | 4.34 µM | 2.59 µM | 20.3 µM | 3.21 µM | 19.8 µM | 2.31 µM | 7.88 µM | – | –

— PubChem BioAssay (NCI)
